Source: patent US5985281A, “Chemical compounds” (Zeneca Limited, priority 1994, dated 1999)
Like-named read-outs stand apart in the source and are kept apart here. Residues, ends and D or L forms follow the SMILES beside them.

Tests used:
D253K mutant HCPB = test: Determination of Km and kcat of D253K mutant HCPB with Hipp-Asp and Hipp-Glu; assay type: biochemical, human; settings: for Km / kcat / kcat/Km: pH 7.5, 37° C.
Lys66Glu BP-RNase [1] = test: Enzyme kinetics of prodrug analogues with mutant Lys66Glu bovine RNase; settings: 25° C.
HP-RNase = assay type: biochemical, human; settings: pH 7
[2] = test system: LoVo colorectal tumour cells
BP-RNase = molecular target: T1, BP-RNase (Bos taurus, UniProt P61823); test: Enzyme kinetics of RNase prodrug versus native bovine pancreatic RNase; assay type: biochemical; settings: 37° C., pH 7.5
T1 sequence (P61823 27-150): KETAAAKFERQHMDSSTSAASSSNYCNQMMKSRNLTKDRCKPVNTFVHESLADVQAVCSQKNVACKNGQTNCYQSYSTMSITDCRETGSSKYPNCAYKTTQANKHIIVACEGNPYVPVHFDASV

[3] = test system: Arg4Ala,Lys6Ala,Lys66Glu HP-RNase; assay type: biochemical, human; settings: for kcat/Km: pH 7
LoVo tumour = test: Anti-tumour activity in LoVo xenografted mice; assay type: in vivo, athymic nude mice; settings: conjugate 10-100 mg/kg iv, then prodrug 100-1000 mg/kg iv or ip; vs untreated, conjugate or prodrug alone
Protocol: LoVo tumour cells (10^7) are injected subcutaneously into athymic nude mice. When the tumours are 4-5 mm in diameter the conjugate is administered iv at doses between 10-100 mg/kg. Following localisation of the conjugate to the tumours and allowing a suitable time interval for residual conjugate to clear from the bloodstream and normal tissues (1-4 days) the prodrug is administered either iv or ip to the mice in dose ranging between 100-1000 mg/kg.

Lys66Glu BP-RNase [4] = assay type: biochemical, bovine; settings: for kcat/Km: pH 7.5
[5] = Conversion of Hipp-Asp to hippuric acid by mutant and native human CPB (HPLC); assay type: biochemical; settings: 0.5 mM Hipp-Asp, 4 μg enzyme, 5 h, 37° C., pH 7.5
[6] = HCPB activity of COS cell supernatants against Hipp-Arg; assay type: biochemical; settings: COS-7 supernatant (250 μl), 5 h assay
[7] = Conversion of Hipp-Glu to hippuric acid by mutant and native human CPB (HPLC); assay type: biochemical; settings: 0.5 mM Hipp-Glu, 4 μg enzyme, 5 h, 37° C., pH 7.5
[8] = Enzymic activity of recombinant HCPB against Hipp-Arg (spectrophotometric); assay type: biochemical; settings: Tris HCl pH 7.5
Protocol: Purified human CPB, produced as described in Reference Example 20, was assayed for its ability to convert hippuryl-L-arginine (Hipp-Arg) to hippuric acid using a spectrophotometric assay.
Km and Vmax values were calculated using the ENZFITTER™ software programme (Biosoft™, Perkin Elmer). Kcat was calculated form Vmax by dividing by the enzyme concentration in the reaction mixture.

[9] = Conversion of Hipp-Arg to hippuric acid by mutant and native human CPB (HPLC); assay type: biochemical; settings: 4 μg enzyme, 5 h, 37° C., pH 7.5
C>p = test: RNase activity of recombinant and Lys66Glu bovine RNase on hydrolysis of C>p (and CpA); assay type: biochemical
C > p = test: Kinetic characterisation of RNase enzymes with C>p as substrate at pH 7.0; assay type: biochemical; settings: CpA and C>p as substrates
Protocol: The kinetic characterisation was carried out using CpA and C>p as substrates (FIG. 16). The kinetic parameters Km, kcat, and kcat/Km were compared with the values obtained for commercial and recombinant bovine pancreatic RNase under the same assay conditions (see Tables).
Kinetic parameters of the different enzymes for C > p as […]

Molecule: O=C(O)C[C@H](NC(=O)CNC(=O)c1ccccc1)C(=O)O [Hipp-Asp, hippuryl-L-aspartic acid] (HELM PEPTIDE1{[O=C(c1ccccc1)[*:2]].G.D}$$$$V2.0)
- Km (D253K mutant HCPB): 2.7 mM
- kcat (D253K mutant HCPB): 0.26 s⁻¹
- kcat/Km (D253K mutant HCPB): 100 M⁻¹ s⁻¹

Molecule: O=C(O)CC[C@H](NC(=O)CNC(=O)c1ccccc1)C(=O)O [Hipp-Glu, hippuryl-L-glutamic acid] (HELM PEPTIDE1{[O=C(c1ccccc1)[*:2]].G.E}$$$$V2.0)
- kcat/Km compared to the Hipp-Asp substrate (D253K mutant HCPB; Hipp-Glu vs Hipp-Asp): approximately 7 fold
- Km (D253K mutant HCPB): 5.3 mM
- kcat (D253K mutant HCPB): 3.8 s⁻¹
- kcat/Km (D253K mutant HCPB): 700 M⁻¹ s⁻¹

Molecule: CCCN(CCC)c1ccc(OP(=O)(O)O[C@H]2[C@@H](O)[C@H](n3ccc(=O)[nH]c3=O)O[C@@H]2CNC(=O)CN)cc1 [Reference Example 6]
- kcat/Km (Lys66Glu BP-RNase [1]): 25(6) mM^-1 s^-1

Molecule: NCC(=O)NC[C@H]1O[C@@H](n2ccc(=O)[nH]c2=O)[C@H](O)[C@@H]1OP(=O)(O)Oc1ccc(N(CCCl)CCCl)cc1 [Example 3, O-[(2R,3S,4R,5R)-2-(2-aminoacetamidomethyl)-5-(2,4-dioxo-1,2,3,4-tetrahydropyrimidin-1-yl)-4-hydroxy-2,3,4,5-tetrahydrofuran-3-yl]O-[4-(bis[2-chloroethyl]amino)phenyl] hydrogen phosphate]
- kcat/Km (HP-RNase): 0.2
- cytotoxicity of prodrug with A5B7 F(ab')2-Arg4Ala,Lys6Ala,Lys66Glu HP-RNase conjugate [2]: comparable to that of the active drug
- cytotoxicity of prodrug with free Arg4Ala,Lys6Ala,Lys66Glu HP-RNase [2]: comparable to that of the active drug
- fold less cytotoxic than the drug ([2]; human): approximately 30 fold
- IC50 ([2]; read-out: IC50 (inhibition of cell growth by 50%)): ~30 µM
- kcat/Km (BP-RNase): 370 M⁻¹ s⁻¹
- rate of hydrolysis compared with native enzyme [3]: much faster than the native enzyme
- kcat/Km [3]: 3.6
- tumour growth with combination of conjugate and prodrug (LoVo tumour): significantly slower
- rate of hydrolysis compared with native enzyme (Lys66Glu BP-RNase [4]): much faster than the native enzyme
- kcat/Km (Lys66Glu BP-RNase [4]): 18

Molecule: CCCN(CCC)c1ccc(OP(=O)(O)O[C@H]2[C@@H](O)[C@H](n3ccc(N)nc3=O)O[C@@H]2CNC(=O)CN)cc1 [Reference Example 7]
- kcat/Km (Lys66Glu BP-RNase [1]): 109(11) mM^-1 s^-1

Molecule: Nc1ccn([C@@H]2O[C@H](CO)[C@H]3OP(=O)(O)O[C@H]32)c(=O)n1 [C > p, cytidine-2',3'-cyclic monophosphate, reference compound]
- kcat/Km (HP-RNase): 1.2
- kcat/Km [3]: 1.2
- kcat/Km (Lys66Glu BP-RNase [1]): 3.0 mM⁻¹ s⁻¹
- kcat/Km (Lys66Glu BP-RNase [4]): 3.0

B1: Native CPB: native human pancreatic carboxypeptidase B, recombinant (protein, UniProt P15086 111-417, looked up)
Carboxypeptidase B: ATGHSYEKYNKWETIEAWTQQVATENPALISRSVIGTTFEGRAIYLLKVGKAGQNKPAIFMDCGFHAREWISPAFCQWFVREAVRTYGREIQVTELLDKLDFYVLPVLNIDGYIYTWTKSRFWRKTRSTHTGSSCIGTDPNRNFDAGWCEIGASRNPCDETYCGPAAESEKETKALADFIRNKLSSIKAYLTIHSYSQMMIYPYSYAYKLGENNAELNALAKATVKELASLHGTKYTYGPGATTIYPAAGGSDDWAYDQGIRYSFTFELRDTGRYGFLLPESQIRATCEETFLAIKYVASYVLEHLY
- % conversion to Hippuric acid, Hipp-Asp [5]: 0%
- hydrolysis of Hipp-Arg substrate ([6]; LIPOFECTIN-only control 1.2%): 61%
- % conversion to Hippuric acid, Hipp-Glu [7]: 0%
- kcat [8]: 65 s⁻¹
- % conversion to Hippuric acid, Hipp-Arg [9]: 100%

B2: Rec. BP-RNase: recombinant bovine pancreatic ribonuclease (protein, UniProt P61823 27-150, looked up)
Ribonuclease pancreatic: KETAAAKFERQHMDSSTSAASSSNYCNQMMKSRNLTKDRCKPVNTFVHESLADVQAVCSQKNVACKNGQTNCYQSYSTMSITDCRETGSSKYPNCAYKTTQANKHIIVACEGNPYVPVHFDASV
- specific activity compared with the commercial enzyme (C>p; hydrolysis of CpA and C>p): equal specific activity to that of the commercial enzyme

B3: Lys66Glu BP-RNase: bovine Lys66Glu pancreatic ribonuclease (protein, UniProt P61823 27-150, looked up, variant K66E)
Ribonuclease pancreatic: KETAAAKFERQHMDSSTSAASSSNYCNQMMKSRNLTKDRCKPVNTFVHESLADVQAVCSQKNVACENGQTNCYQSYSTMSITDCRETGSSKYPNCAYKTTQANKHIIVACEGNPYVPVHFDASV
- kinetic properties compared with commercial bovine enzyme (C>p; C>p hydrolysis, pH 7.0): not significantly different to the commercial bovine enzyme

B4: Rec. HP-RNase R4A:K6A: recombinant Arg4Ala,Lys6Ala human pancreatic ribonuclease (protein, UniProt P07998 29-156, looked up, variant R4A K6A)
Ribonuclease pancreatic: KESAAAKFQRQHMDSDSSPSSSSTYCNQMMRRRNMTQGRCKPVNTFVHEPLVDVQNVCFQEKVTCKNGQGNCYKSNSSMHITDCRLTNGSRYPNCAYRTSPKERHIIVACEGSPYVPVHFDASVEDST
- kinetic properties compared with homologous bovine counterpart (C > p): not significantly different

B5: proHCPB: pro form of human pancreatic carboxypeptidase B expressed from COS cells (protein, UniProt P15086 16-417, looked up)
pro-form: HHGGEHFEGEKVFRVNVEDENHINIIRELASTTQIDFWKPDSVTQIKPHSTVDFRVKAEDTVTVENVLKQNELQYKVLISNLRNVVEAQFDSRVRATGHSYEKYNKWETIEAWTQQVATENPALISRSVIGTTFEGRAIYLLKVGKAGQNKPAIFMDCGFHAREWISPAFCQWFVREAVRTYGREIQVTELLDKLDFYVLPVLNIDGYIYTWTKSRFWRKTRSTHTGSSCIGTDPNRNFDAGWCEIGASRNPCDETYCGPAAESEKETKALADFIRNKLSSIKAYLTIHSYSQMMIYPYSYAYKLGENNAELNALAKATVKELASLHGTKYTYGPGATTIYPAAGGSDDWAYDQGIRYSFTFELRDTGRYGFLLPESQIRATCEETFLAIKYVASYVLEHLY
modifications: pro-form
notes: pro form of human pancreatic carboxypeptidase B expressed from COS cells
- hydrolysis of Hipp-Arg substrate after activation with trypsin ([6]; trypsin 700 μg/ml, LIPOFECTIN-only control 30%): complete hydrolysis
